Assay results from the supplement of paper PMC10331698.
± gives the standard deviation of the averaged measurements.

Experiments:
Test in all cases: level (log10 ratio to DMSO vehicle control); higher = higher biomarker level / cell amount than vehicle control
Settings in all cases: in DMSO
[1] = compound: O=C(O)C=CC(F)(C(F)(F)F)C(F)(F)F [3-(Perfluoroisopropyl)-2-propenoic acid]
Method: (§1)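 BioMAP Diversity Plus panel of 12 human primary cell co-culture systems (3C, 4H, LPS, SAg, BT, BF4T, BE3C, CASM3C, HDF3CGF, KF3CT, MyoF, Mphg). Compounds were added 1 h before stimulation and left for 24 h (MyoF 48 h; BT 72 h for soluble read-outs or 6 d for IgG). Biomarkers were read by ELISA, cytotoxicity by SRB, PBMC viability and proliferation by Alamar Blue. Each well value was divided by the mean of 8 DMSO control wells on the same plate and log10 transformed; duplicate blinded samples were tested at 4 concentrations.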

[2] = compound: COC(=O)C(F)(F)C(F)(F)OC(F)(C(F)(F)F)C(F)(F)OC(F)=C(F)F [Methyl perfluoro(3-(1-ethenyloxypropan-2-yloxy)propanoate)]
Method: as §1

Nonafluoropentanamide = compound: NC(=O)C(F)(F)C(F)(F)C(F)(F)C(F)(F)F [Nonafluoropentanamide]
Method: as §1

Hexafluoroamylene glycol = compound: OCC(F)(F)C(F)(F)C(F)(F)CO [Hexafluoroamylene glycol]
Method: as §1

[3] = compound: O=S(=O)(O)C(F)(F)C(F)(F)C(F)(F)C(F)(F)C(F)(F)C(F)(F)C(F)(F)C(F)(F)C(F)(F)C(F)(F)F [Sodium perfluorodecanesulfonate]
Method: as §1

[4] = compound: O=S(=O)(F)C(F)(F)C(F)(F)C(F)(F)C(F)(F)C(F)(F)C(F)(F)C(F)(F)C(F)(F)F [Perfluorooctanesulfonyl fluoride]
Method: as §1

Test System | level (log10) ([1]; 6700 nM) | level (log10) ([1]; 20000 nM) | level (log10) ([1]; 60000 nM) | level (log10) ([2]; 6700 nM) | level (log10) ([2]; 20000 nM) | level (log10) (Nonafluoropentanamide; 6700 nM) | level (log10) (Nonafluoropentanamide; 20000 nM) | level (log10) (Nonafluoropentanamide; 60000 nM) | level (log10) (Hexafluoroamylene glycol; 6700 nM) | level (log10) (Hexafluoroamylene glycol; 20000 nM) | level (log10) (Hexafluoroamylene glycol; 60000 nM) | level (log10) ([3]; 1500 nM) | level (log10) ([3]; 4400 nM) | level (log10) ([3]; 13000 nM) | level (log10) ([3]; 40000 nM) | level (log10) ([4]; 6700 nM) | level (log10) ([4]; 20000 nM) | level (log10) ([4]; 60000 nM)
CASM3C:CD87/uPAR | -0.006 ± 0.0057 | -0.0135 ± 0.012 | -0.015 ± 0.0042 | -0.015 ± 0.027 | -0.0165 ± 0.026 | -0.0215 ± 0.013 | -0.023 ± 0.0014 | 0.0025 ± 0.00071 | 0.003 ± 0.021 | 0.0125 ± 0.011 | -0.0195 ± 0.035 | 0.0455 ± 0.021 | -0.0065 ± 0.03 | 0.042 ± 0.0042 | 0.0075 ± 0.015 | 0.0105 ± 0.0035 | 0.0065 ± 0.005 | 0.0225 ± 0.012
CASM3C:CD141/Thrombomodulin | -0.0215 ± 0.011 | -0.001 ± 0.023 | 0.0075 ± 0.033 | -0.0085 ± 0.005 | 0.023 ± 0.018 | 0.011 ± 0.089 | -0.024 ± 0.064 | -0.0285 ± 0.06 | 0.009 ± 0.041 | 0 ± 0.05 | 0.0135 ± 0.037 | 0.0625 ± 0.015 | 0.034 ± 0.0028 | 0.03 ± 0.038 | 0.166 ± 0.0092 | -0.004 ± 0.0042 | -0.01 ± 0.0014 | -0.0075 ± 0.005
CASM3C:CXCL8/IL-8 | 0.008 ± 0.025 | 0.0025 ± 0.016 | 0.0225 ± 0.0021 | -0.004 ± 0.0085 | 0.013 ± 0.0085 | -0.003 ± 0.018 | -0.0105 ± 0.012 | 0.0065 ± 0.018 | 0.028 ± 0.023 | -0.0055 ± 0.021 | 0.0015 ± 0.021 | 0.025 ± 0.016 | 0.01 ± 0.037 | 0.03 ± 0.021 | 0.064 ± 0.034 | 0.0025 ± 0.00071 | -0.0035 ± 0.0035 | 0.0035 ± 0.016
CASM3C:CXCL9/MIG | -0.004 ± 0.0099 | 0.002 ± 0.0057 | 0.027 ± 0.023 | -0.0025 ± 0.0078 | -0.007 ± 0.013 | -0.011 ± 0.013 | -0.029 ± 0.051 | -0.0075 ± 0.074 | -0.03 ± 0.011 | -0.0225 ± 0.016 | 0.009 ± 0.024 | 0.0195 ± 0.036 | -0.0105 ± 0.011 | 0.0285 ± 0.043 | 0.0875 ± 0.043 | -0.0025 ± 0.00071 | 0.001 ± 0.0057 | 0.0075 ± 0.011
CASM3C:IL-6 | -0.035 ± 0.011 | -0.0525 ± 0.00071 | 0.001 ± 0.092 | -0.018 ± 0.02 | -0.0065 ± 0.025 | 0.0185 ± 0.06 | -0.0285 ± 0.021 | 0.015 ± 0.014 | -0.0015 ± 0.015 | -0.0155 ± 0.016 | 0.028 ± 0.028 | -0.013 ± 0.018 | -0.053 ± 0.05 | 0.055 ± 0.0099 | 0.108 ± 0.018 | -0.014 ± 0.02 | -0.008 ± 0.0071 | -0.0125 ± 0.061
CASM3C:M-CSF | -0.0195 ± 0.0078 | -0.0175 ± 0.011 | 0.009 ± 0.034 | -0.0075 ± 0.036 | 0.01 ± 0.025 | -0.0105 ± 0.0021 | -0.0075 ± 0.019 | 0.0195 ± 0.035 | -0.0075 ± 0.013 | -0.0195 ± 0.028 | 0.0135 ± 0.044 | 0.0465 ± 0.0064 | 0.0285 ± 0.0035 | 0.03 ± 0.014 | 0.14 ± 0.079 | 0.0005 ± 0.013 | -0.0185 ± 0.028 | 0.0085 ± 0.021
CASM3C:PAI-I | 0.006 ± 0.0028 | 0 ± 0.0057 | 0.012 ± 0.0057 | -0.0015 ± 0.0035 | -0.0005 ± 0.012 | -0.008 ± 0.024 | -0.0065 ± 0.0064 | 0.0105 ± 0.0064 | -0.0035 ± 0.015 | 0.017 ± 0.031 | 0.006 ± 0.0085 | -0.001 ± 0.0028 | -0.0165 ± 0.0064 | 0.009 ± 0.0057 | -0.0055 ± 0.021 | 0.005 ± 0.0071 | -0.005 ± 0.0028 | 0.0045 ± 0.0035
CASM3C:SRB | 0.006 ± 0.0042 | -0.011 ± 0.0042 | -0.003 ± 0.0028 | 0.0015 ± 0.0021 | 0.006 ± 0.0014 | 0.005 ± 0.0057 | 0.0025 ± 0.0035 | 0.0035 ± 0.0035 | -0.0005 ± 0.013 | -0.0085 ± 0.00071 | -0.0045 ± 0.0078 | -0.0035 ± 0.011 | -0.005 ± 0.0085 | 0 ± 0.0028 | -0.007 ± 0.0085 | 0.002 ± 0.0014 | -0.006 ± 0.0071 | -0.0015 ± 0.0021
CASM3C:Serum Amyloid A | 0.0085 ± 0.005 | -0.023 ± 0.017 | 0.026 ± 0.045 | 0.007 ± 0.011 | 0.009 ± 0.023 | -0.016 ± 0.018 | -0.018 ± 0.0057 | 0.008 ± 0.013 | 0.016 ± 0.014 | -0.0055 ± 0.069 | 0.002 ± 0.0014 | -0.0545 ± 0.022 | -0.0135 ± 0.011 | 0.0365 ± 0.036 | 0.182 ± 0.028 | 0.0225 ± 0.0092 | 0.0245 ± 0.0078 | 0.0185 ± 0.011
HDF3CGF:CCL2/MCP-1 | -0.006 ± 0.018 | 0.006 ± 0.0085 | 0.017 ± 0.017 | 0.023 ± 0.0042 | 0.0305 ± 0.029 | -0.0025 ± 0.019 | 0.0065 ± 0.012 | 0.01 ± 0.035 | -0.003 ± 0.0071 | -0.004 ± 0.0057 | 0.007 ± 0.0071 | -0.0105 ± 0.05 | -0.018 ± 0.035 | 0.0415 ± 0.025 | 0.112 ± 0.0099 | -0.0035 ± 0.028 | 0.007 ± 0.023 | -0.007 ± 0.072
HDF3CGF:CD54/ICAM-1 | -0.0105 ± 0.005 | -0.0055 ± 0.015 | -0.024 ± 0.016 | -0.0155 ± 0.0092 | -0.029 ± 0.025 | -0.0065 ± 0.011 | -0.01 ± 0.0085 | 0 ± 0.0042 | -0.0065 ± 0.016 | 0.0015 ± 0.012 | 0.009 | -0.0145 ± 0.021 | -0.031 ± 0.016 | -0.037 ± 0.016 | -0.063 ± 0.0057 | -0.013 ± 0.018 | -0.011 ± 0.0014 | -0.006 ± 0.013
HDF3CGF:CXCL8/IL-8 | -0.008 ± 0.0042 | 0.004 ± 0.011 | 0.0065 ± 0.013 | 0.0045 ± 0.011 | 0.0245 ± 0.0064 | -0.0045 ± 0.0035 | -0.0005 ± 0.0021 | 0.0015 ± 0.005 | -0.0325 ± 0.04 | -0.011 ± 0.0028 | 0.009 ± 0.024 | -0.0055 ± 0.0035 | -0.0095 ± 0.005 | 0.0165 ± 0.016 | 0.023 ± 0.0028 | -0.002 ± 0.0028 | -0.0015 ± 0.00071 | 0.0085 ± 0.0021
HDF3CGF:CXCL10/IP-10 | -0.007 ± 0.034 | 0.0025 ± 0.035 | -0.001 ± 0.027 | -0.018 ± 0.062 | -0.203 ± 0.03 | -0.012 ± 0.0014 | -0.0055 ± 0.00071 | -0.004 ± 0.0014 | -0.009 | -0.0135 ± 0.029 | -0.028 ± 0.051 | -0.001 ± 0.027 | -0.065 ± 0.0042 | -0.025 ± 0.02 | 0.012 | -0.0005 ± 0.0021 | -0.015 ± 0.011 | -0.012 ± 0.014
HDF3CGF:CXCL11/I-TAC | -0.004 ± 0.0014 | 0.015 ± 0.025 | 0.002 ± 0.021 | -0.0285 ± 0.018 | -0.272 ± 0.0078 | -0.0095 ± 0.021 | 0.009 ± 0.024 | -0.0155 ± 0.011 | 0.001 ± 0.04 | -0.015 ± 0.088 | -0.044 ± 0.1 | -0.0205 ± 0.029 | -0.0225 ± 0.0092 | 0.0785 ± 0.013 | 0.092 ± 0.0042 | -0.0035 ± 0.0021 | -0.012 ± 0.0028 | -0.0155 ± 0.0021
HDF3CGF:Collagen I | -0.0205 ± 0.043 | -0.0065 ± 0.023 | 0.0475 ± 0.035 | 0.013 ± 0.095 | 0.069 | 0.02 ± 0.031 | 0.013 ± 0.057 | 0.067 ± 0.033 | -0.005 ± 0.047 | 0.005 ± 0.09 | 0.0485 ± 0.12 | -0.0095 ± 0.012 | -0.01 | 0.067 ± 0.011 | 0.0845 ± 0.042 | -0.0055 ± 0.057 | 0.015 ± 0.014 | 0.041 ± 0.027
HDF3CGF:Collagen III | -0.0125 ± 0.00071 | 0.009 ± 0.0014 | 0.033 ± 0.038 | -0.059 ± 0.072 | -0.079 ± 0.016 | 0.033 ± 0.0014 | 0.026 ± 0.0014 | 0.049 ± 0.0099 | 0.009 ± 0.051 | 0.0115 ± 0.064 | 0.0515 ± 0.026 | -0.031 ± 0.042 | -0.074 ± 0.025 | 0.054 ± 0.0014 | 0.0205 ± 0.052 | 0.055 ± 0.016 | 0.039 ± 0.025 | -0.03 ± 0.055
